Results published in patent publication US7622469B2, “2,4-diamino-1,3,5-triazine derivatives” (Hamari Chemicals, Ltd., priority 2002, dated 2009).

What was measured:
VRE 49 [1] = test: Antibacterial activity test (MIC); assay type: cell-based, vancomycin-resistant enterococci; details: Mueller-Hinton Broth, 37° C., 20 to 24 hours
Method: Regarding compounds obtained in respective Working Examples, in order to investigate antibacterial activity, minimal inhibitory concentration (MIC) was determined according to a standard method of Japanese Society of Chemotherapy.
As a test bacterium, nine kinds of S. aureus 209PJC, MRSA 97-115, MRSA KM 97-53, MRSA KM97-108, VRE 49, E. coli NIHJ JC-2, P. aeruginosa PAO-1, P. aeruginosa No. 12, P. aeruginosa KM97-5 were used and, as a medium, Mueller-Hinton Broth (DIFCO) was used. One platinum loop of a test bacterium was inoculated into 20 ml of a medium, and static culture was carried out at 37° C. for 16 to 20 hours, and then each bacterium species was diluted with a sterilized physiological saline to 10^5/ml, which was used as a test bacterium solution.
Then, each compound was dissolved in methanol, subjected to ½ stepwise dilution with a medium to prepare a medium for measuring sensitivity, and each 2 ml was dispensed into a test tube. A compound concentration in a medium was adjusted to 100 μg/ml and its 2^n-fold (n=−10 to 1).
Numerical values in Tables represent MIC expressed in μg/ml unit.

P. aeruginosa No. 12 [2] = test: Bactericidal activity test (MBC, phenol coefficient measuring method); assay type: cell-based
Method: (§1) As a test bacterium, the same bacteria species as those of the antibacterial activity test were used; as a medium to be used, a SCD medium (manufactured by Eiken Chemical Co., Ltd.) was used for pre-culture medium; and a heart infusion bouillon medium (manufactured by Eiken Chemical Co., Ltd.) was used as a medium for growing a live bacterium in a test solution after bactericidal treatment. One platinum loop of a test bacterium was inoculated into 20 ml of a medium, and static culture was carried out at 37° C. for 18 to 20 hours, and the cells were adjusted with a sterilized physiological saline to 1×10^7/ml, which was used as a test bacterium solution.
(§2) Then, a solution of each compound in methanol was subjected to ½ stepwise dilution with sterilized water, each 5 ml was dispensed into a test tube, 0.5 ml of the previously prepared test bacterium solution was added thereto, and the mixture was blended well. After 1 minute, 3 minutes and 5 minutes has passed, 5 μl of the test solution was collected and inoculated into 2 ml of a heart infusion bouillon medium, this was cultured at 37° C. for 40 to 48 hours, and the presence or absence of growth of a bacterium was determined. A test was performed three times, a minimum concentration at which growth of a bacterium was not recognized two or more times was adopted as a minimal bactericidal concentration (MBC value).
(§3) Numerical values in Tables represent MBC expressed in μg/ml unit.

S. aureus 209PJC [3] = test: as above; assay type: cell-based
Method: as §1, §2, §3

E. coli NIHJ JC-2 [4] = test: as above; assay type: cell-based
Method: as §1, §2, §3

P. aeruginosa KM 97-5 [5] = test: as above; assay type: cell-based
Method: as §1, §2, §3

MRSA KM 97-108 [6] = test: as above; assay type: cell-based, methicillin-resistant Staphylococcus aureus
Method: as §1, §2, §3

MRSA KM 97-53 [7] = test: as above; assay type: cell-based, methicillin-resistant Staphylococcus aureus
Method: as §1, §2, §3

MRSA 97-115 [8] = test: as above; assay type: cell-based, methicillin-resistant Staphylococcus aureus
Method: as §1, §2, §3

VRE 49 [9] = test: as above; assay type: cell-based, vancomycin-resistant enterococci
Method: as §1, §2, §3

P. aeruginosa No. 12 [10] = test: Antibacterial activity test (MIC); assay type: cell-based; details: Mueller-Hinton Broth, 37° C., 20 to 24 hours
Outline: (§4)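 Broth dilution MIC per Japanese Society of Chemotherapy method, in Mueller-Hinton Broth with inoculum of 10^5/ml from 16–20 h cultures at 37° C. Compound (methanol-dissolved) tested at 100 μg/ml and 2^n-fold (n=−10 to 1) twofold steps; MIC expressed in μg/ml.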

S. aureus 209PJC [11] = test: Antibacterial activity test (MIC); assay type: cell-based; details: Mueller-Hinton Broth, 37° C., 20 to 24 hours
Outline: as §4

E. coli NIHJ JC-2 [12] = test: Antibacterial activity test (MIC); assay type: cell-based; details: Mueller-Hinton Broth, 37° C., 20 to 24 hours
Outline: as §4

P. aeruginosa KM 97-5 [13] = test: Antibacterial activity test (MIC); assay type: cell-based; details: Mueller-Hinton Broth, 37° C., 20 to 24 hours
Outline: as §4

MRSA KM 97-108 [14] = test: Antibacterial activity test (MIC); assay type: cell-based, methicillin-resistant Staphylococcus aureus; details: Mueller-Hinton Broth, 37° C., 20 to 24 hours
Outline: as §4

MRSA KM 97-53 [15] = test: Antibacterial activity test (MIC); assay type: cell-based, methicillin-resistant Staphylococcus aureus; details: Mueller-Hinton Broth, 37° C., 20 to 24 hours
Outline: as §4

MRSA 97-115 [16] = test: Antibacterial activity test (MIC); assay type: cell-based, methicillin-resistant Staphylococcus aureus; details: Mueller-Hinton Broth, 37° C., 20 to 24 hours
Outline: as §4

P. aeruginosa PAO-1 [17] = test: Bactericidal activity test (MBC, phenol coefficient measuring method); assay type: cell-based
Method: as §1, §2, §3

P. aeruginosa PAO-1 [18] = test: Antibacterial activity test (MIC); assay type: cell-based; details: Mueller-Hinton Broth, 37° C., 20 to 24 hours
Outline: as §4

Row | SMILES | minimal inhibitory concentration (MIC) (VRE 49 [1]) [µg/mL] | minimal bactericidal concentration (MBC) (P. aeruginosa No. 12 [2]; 1 min) [µg/mL] | minimal bactericidal concentration (MBC) (P. aeruginosa No. 12 [2]; 3 min) [µg/mL] | minimal bactericidal concentration (MBC) (P. aeruginosa No. 12 [2]; 5 min) [µg/mL] | minimal bactericidal concentration (MBC) (S. aureus 209PJC [3]; 1 min) [µg/mL] | minimal bactericidal concentration (MBC) (S. aureus 209PJC [3]; 3 min) [µg/mL] | minimal bactericidal concentration (MBC) (S. aureus 209PJC [3]; 5 min) [µg/mL] | minimal bactericidal concentration (MBC) (E. coli NIHJ JC-2 [4]; 1 min) [µg/mL] | minimal bactericidal concentration (MBC) (E. coli NIHJ JC-2 [4]; 3 min) [µg/mL] | minimal bactericidal concentration (MBC) (E. coli NIHJ JC-2 [4]; 5 min) [µg/mL] | minimal bactericidal concentration (MBC) (P. aeruginosa KM 97-5 [5]; 1 min) [µg/mL] | minimal bactericidal concentration (MBC) (P. aeruginosa KM 97-5 [5]; 3 min) [µg/mL] | minimal bactericidal concentration (MBC) (P. aeruginosa KM 97-5 [5]; 5 min) [µg/mL] | minimal bactericidal concentration (MBC) (MRSA KM 97-108 [6]; 1 min) [µg/mL] | minimal bactericidal concentration (MBC) (MRSA KM 97-108 [6]; 3 min) [µg/mL] | minimal bactericidal concentration (MBC) (MRSA KM 97-108 [6]; 5 min) [µg/mL] | minimal bactericidal concentration (MBC) (MRSA KM 97-53 [7]; 1 min) [µg/mL] | minimal bactericidal concentration (MBC) (MRSA KM 97-53 [7]; 3 min) [µg/mL] | minimal bactericidal concentration (MBC) (MRSA KM 97-53 [7]; 5 min) [µg/mL] | minimal bactericidal concentration (MBC) (MRSA 97-115 [8]; 1 min) [µg/mL] | also measured
1 | N=C(NCCCCCCNC(=N)NC(=N)Nc1ccc(Cl)cc1)NC(=N)Nc1ccc(Cl)cc1.O=C(O)[C@H](O)[C@@H](O)[C@H](O)[C@H](O)CO.O=C(O)[C@H](O)[C@@H](O)[C@H](O)[C@H](O)CO [Control drug, chlorhexidine gluconate, reference compound] | 3.1 | 125 | 32 | 32 | 62.5 | 62.5 | 62.5 | 62.5 | 31.3 | 15.6 | 31 | 16 | 8 | 500 | 500 | 500 | 500 | 250 | 250 | 1000 | minimal bactericidal concentration (MBC) (MRSA 97-115 [8]; 3 min): 250 µg/mL; minimal bactericidal concentration (MBC) (MRSA 97-115 [8]; 5 min): 125 µg/mL; minimal bactericidal concentration (MBC) (VRE 49 [9]; 1 min): >1000 µg/mL; minimal bactericidal concentration (MBC) (VRE 49 [9]; 3 min): >1000 µg/mL; minimal bactericidal concentration (MBC) (VRE 49 [9]; 5 min): >1000 µg/mL; minimal inhibitory concentration (MIC) (P. aeruginosa No. 12 [10]): 12.5 µg/mL; minimal inhibitory concentration (MIC) (S. aureus 209PJC [11]): 0.2 µg/mL; minimal inhibitory concentration (MIC) (E. coli NIHJ JC-2 [12]): 1.6 µg/mL; minimal inhibitory concentration (MIC) (P. aeruginosa KM 97-5 [13]): 12.5 µg/mL; minimal inhibitory concentration (MIC) (MRSA KM 97-108 [14]): 3.1 µg/mL; minimal inhibitory concentration (MIC) (MRSA KM 97-53 [15]): 3.1 µg/mL; minimal inhibitory concentration (MIC) (MRSA 97-115 [16]): 3.1 µg/mL
2 | CC(=O)O.CCCCCCCCCNC1=NC(C)(C)N=C(NCc2ccccc2)N1 [compound 48] | 0.8 | 25 | 12.5 | 12.5 | 12.5 | 6.3 | 6.3 | 6.3 | 6.3 | 3.1 | 3.1 | 3.1 | 3.1 | 50 | 50 | 25 | 50 | 25 | 25 | 12.5 | minimal bactericidal concentration (MBC) (P. aeruginosa PAO-1 [17]; 1 min): 6.3 µg/mL; minimal bactericidal concentration (MBC) (P. aeruginosa PAO-1 [17]; 3 min): 3.1 µg/mL; minimal bactericidal concentration (MBC) (P. aeruginosa PAO-1 [17]; 5 min): 3.1 µg/mL; minimal bactericidal concentration (MBC) (MRSA 97-115 [8]; 3 min): 6.3 µg/mL; minimal bactericidal concentration (MBC) (MRSA 97-115 [8]; 5 min): 6.3 µg/mL; minimal bactericidal concentration (MBC) (VRE 49 [9]; 1 min): 25 µg/mL; minimal bactericidal concentration (MBC) (VRE 49 [9]; 3 min): 12.5 µg/mL; minimal bactericidal concentration (MBC) (VRE 49 [9]; 5 min): 12.5 µg/mL; minimal inhibitory concentration (MIC) (P. aeruginosa No. 12 [10]): 25 µg/mL; minimal inhibitory concentration (MIC) (S. aureus 209PJC [11]): 0.8 µg/mL; minimal inhibitory concentration (MIC) (P. aeruginosa PAO-1 [18]): 12.5 µg/mL; minimal inhibitory concentration (MIC) (E. coli NIHJ JC-2 [12]): 12.5 µg/mL; minimal inhibitory concentration (MIC) (P. aeruginosa KM 97-5 [13]): 25 µg/mL; minimal inhibitory concentration (MIC) (MRSA KM 97-108 [14]): 1.6 µg/mL; minimal inhibitory concentration (MIC) (MRSA KM 97-53 [15]): 0.8 µg/mL; minimal inhibitory concentration (MIC) (MRSA 97-115 [16]): 1.6 µg/mL
3 | CC(=O)O.CCCCCCCCNC1=NC(C)(C)N=C(NCc2ccc(C)cc2)N1 [compound 58] | 1.6 | 6.3 | 6.3 | 3.1 | 6.3 | 3.1 | 3.1 | 12.5 | 6.3 | 6.3 | 6.3 | 3.1 | 3.1 | 50 | 50 | 25 | 50 | 50 | 25 | 25 | minimal bactericidal concentration (MBC) (P. aeruginosa PAO-1 [17]; 1 min): 12.5 µg/mL; minimal bactericidal concentration (MBC) (P. aeruginosa PAO-1 [17]; 3 min): 6.3 µg/mL; minimal bactericidal concentration (MBC) (P. aeruginosa PAO-1 [17]; 5 min): 3.1 µg/mL; minimal bactericidal concentration (MBC) (MRSA 97-115 [8]; 3 min): 25 µg/mL; minimal bactericidal concentration (MBC) (MRSA 97-115 [8]; 5 min): 12.5 µg/mL; minimal bactericidal concentration (MBC) (VRE 49 [9]; 1 min): 25 µg/mL; minimal bactericidal concentration (MBC) (VRE 49 [9]; 3 min): 25 µg/mL; minimal bactericidal concentration (MBC) (VRE 49 [9]; 5 min): 12.5 µg/mL; minimal inhibitory concentration (MIC) (P. aeruginosa No. 12 [10]): 25 µg/mL; minimal inhibitory concentration (MIC) (S. aureus 209PJC [11]): 0.4 µg/mL; minimal inhibitory concentration (MIC) (P. aeruginosa PAO-1 [18]): 12.5 µg/mL; minimal inhibitory concentration (MIC) (E. coli NIHJ JC-2 [12]): 12.5 µg/mL; minimal inhibitory concentration (MIC) (P. aeruginosa KM 97-5 [13]): 25 µg/mL; minimal inhibitory concentration (MIC) (MRSA KM 97-108 [14]): 1.6 µg/mL; minimal inhibitory concentration (MIC) (MRSA KM 97-53 [15]): 1.6 µg/mL; minimal inhibitory concentration (MIC) (MRSA 97-115 [16]): 0.4 µg/mL
